Like-named read-outs stand apart in the source and are kept apart here.
Key:
Format in all cases: in vivo, Jersey heifers
[1] = Toxicokinetics of PTA and PTB in plasma after intravenous administration of PTA
Protocol: (§1) Two heifers (no’s 4848 and 4849) were used in a series of five experiments (Table 1) in a cross-over design including intravenous administration of pure PTA, oral administration of bracken extract and oral administration of dried bracken fern. At least 2 weeks elapsed between each experiment.
Intravenous administration of PTA. In Experiment 1 the dose of purified PTA (0.21 mg kg^-1 body weight (b.w.) / 0.527 μmoles kg^-1) was dissolved in 10 mL of sterile water in a brown glass vial 1 hour before administration and protected from light. The solution was injected through a catheter (Cavafix Certo: 45 cm, 16 G; B. Braun Melsungen AG, Melsungen, Germany) placed in the right jugular vein. Blood samples were collected through another catheter placed in the left jugular vein. Blood samples were collected in heparinized glass tubes before and at predetermined times (10, 20, 30, 45 min and 1, 2, 4, 6, 8, 12, 21 and 24 hours) after PTA administration. The blood was centrifuged for 15 min at 3000 g to separate plasma which then was stored immediately at -18°C until assayed within a week following the method of Aranha et al.. Urine was collected quantitatively in urinary bags (Ratiomed GmBH, München, Germany) through a Foley catheter (Rusch Silasil no 16; Teleflex, Milan, Italy) inserted into the bladder. Samples were collected before and at predetermined times (1, 2, 4, 6, 8, 12, 20 and 24 hours) after PTA administration. Two replicates from each sample were diluted 10 times (0.5 mL: 4.5 mL) with 0.1 M acetic acid, buffered to pH 5 with ammonium acetate and frozen immediately at -18°C until assayed within a week following the method of Aranha et al.. […] In this experiment, PTA was dissolved in sterile water immediately before injection.
(§2) Concentrations of PTA in plasma of individual animals were evaluated by non-compartmental analysis. Toxicokinetic variables were calculated using standard kinetic equations. The area under the curve (AUC) and the area under the first moment curve (AUMC) were determined using combined linear and natural logarithm trapezoidal rules. The terminal elimination rate was determined using the last three data points of the curve.
(§3) PTA and PTB were analysed by LC-MS after purification using solid phase extraction (SPE) columns as reported in Aranha et al.. The limit of quantification of PTA and PTB in plasma was 3.0 x 10^−3 μM and 9.30 x 10^−3 μM, respectively. Limit of quantifications in diluted urine was 13 x 10^−3 μM for PTA and 8.28 x 10^−3μM for PTB.

[2] = Presence of glucuronides and sulphates in urine (B-glucuronidase/arylsulfatase incubation); settings: urine after iv PTA
Protocol: The presence of glucuronides and sulphates was assessed by incubating 1 ml of buffered urine samples in 0.1 M acetic acid buffer (pH 5) with or without addition of 100 μl of B-glucuronidase/arylsulfatase at 37°C for 3 hours on a shaking water bath. Afterwards, an aliquot of 950 μl of each samples were cleaned on the Oasis HLB cartridges and analysed as described for urine samples [22].

[3] = Toxicokinetics in plasma after oral administration of bracken extract or dried bracken fern; settings: for AUC0-∞ / MTT mean transit time: PTB in plasma; for Cmax / Tmax / k el: female, Jersey, plasma, po; for Cmax: read-out: Cmax maximum concentration; for k el: read-out: λz terminal slope (converted)
Protocol: as §1
Oral exposure, bracken extract. Bracken extract was administered orally by gavage in Experiment 2 (170 and 172 mL) and Experiment 5 (820 and 850 mL), to obtain PTA doses of 0.41 and 2 mg kg^-1 b.w (1.025 and 5.000 μmoles kg^-1), respectively. Blood and urine samples were collected up to 48 hours after gavage and samples were processed and stored as described previously.
Oral exposure, dried bracken fern. In Experiment 3, dried bracken fern was milled to a fine powder. Immediately before administration, the powder was mixed with water to produce a slurry (15 g of bracken per 100 mL of water). The slurry was administered orally by gavage (400 mL and 380 mL) corresponding to a PTA dose of 1.6 mg kg^-1 b.w (4 μmoles kg^-1). Blood and urine samples were collected up to 72 hours after gavage and the samples were processed and stored as described above.
as §2, §3

[4] = One-week repeated dose trial with dried bracken, plasma toxicokinetics; settings: for AUC0-∞ / MTT: PTB in plasma, daily PTA dose 2 mg kg^-1
Description: The two heifers used for the single dose trials were also used for the one week repeated dose study together with an additional two Jersey heifers (no’s 1550 and 1567; Harald Hansen Eftf. I/S, Slangerup, Denmark) weighing 163 to 237 kg. The additional two heifers had never been exposed to PTA or to bracken fern. A wash-out period of 20 days between the last single-dose experiment and the one week repeated dose trial was established for heifers no’s 4848 and 4849.
All four heifers were fed dried bracken powder (top-dressed and molasses added). twice a day during a period of 7 days providing a daily PTA dose of 2 mg kg^-1 (5 μmoles kg^-1). On Day 8, the heifers no 4848 and no 1567 were additionally fed in the morning and euthanized 1 hour after using a captive bolt pistol and exsanguination. The two other heifers (no 4849 and no 1550) were euthanized 15 h after the last dose on Day 7 (Fig 2).
Blank blood samples were collected before the first dose was given. On Day 1 and Day 7 blood samples were collected after the morning dose at predetermined time points between 1 and 6 h after dosing (1, 2, 3, 5 and 6 hours). On Day 2 to Day 6 blood samples were collected daily 1 hour after 50% or more of the morning feed had been ingested, since the bracken fern was not eaten instantly. On Day 8 blood samples were collected just before euthanasia. Blood samples were processed and stored as described above.
as §2

[5] = oral bracken extract, PTA dose 1.03 μmoles kg^-1, heifer no 4848
[6] = oral bracken extract, PTA dose 1.03 μmoles kg^-1, heifer no 4849
[7] = oral bracken extract, PTA dose 5.02 μmoles kg^-1, heifer no 4848
[8] = oral bracken extract, PTA dose 5.02 μmoles kg^-1, heifer no 4849
[9] = oral dried bracken, PTA dose 4.02 μmoles kg^-1, heifer no 4848
[10] = oral dried bracken, PTA dose 4.02 μmoles kg^-1, heifer no 4849
[11] = bovine, 1.03 μmoles kg^-1, PTB in plasma, oral bracken extract, PTA dose 1.03 μmoles kg^-1, heifer no 4848
[12] = bovine, 1.03 μmoles kg^-1, PTB in plasma, oral bracken extract, PTA dose 1.03 μmoles kg^-1, heifer no 4849
[13] = bovine, 4.02 μmoles kg^-1, PTB in plasma, oral dried bracken, PTA dose 4.02 μmoles kg^-1, heifer no 4848
[14] = bovine, 4.02 μmoles kg^-1, PTB in plasma, oral dried bracken, PTA dose 4.02 μmoles kg^-1, heifer no 4849
[15] = bovine, 5.02 μmoles kg^-1, PTB in plasma, oral bracken extract, PTA dose 5.02 μmoles kg^-1, heifer no 4848
[16] = bovine, 5.02 μmoles kg^-1, PTB in plasma, oral bracken extract, PTA dose 5.02 μmoles kg^-1, heifer no 4849
[17] = Day 1, heifer 1550, dried bracken twice a day
[18] = Day 1, heifer 1567, dried bracken twice a day
[19] = Day 1, heifer 4848, dried bracken twice a day
[20] = Day 1, heifer 4849, dried bracken twice a day
[21] = Day 7, heifer 1550, dried bracken twice a day
[22] = Day 7, heifer 1567, dried bracken twice a day
[23] = Day 7, heifer 4848, dried bracken twice a day
[24] = Day 7, heifer 4849, dried bracken twice a day

Cc1cc2c(c(C)c1CCO)C(=O)[C@H](C)C2 [PTB, pterosin B]
AUC0-∞ ([1]; PTB in plasma after iv PTA 0.141 μmoles kg^-1, heifer no 4849, head prints Experiment 2): 0.319 µM·h
AUC0-∞ ([1]; PTB in plasma after iv PTA 0.231 μmoles kg^-1, heifer no 4848, head prints Experiment 2): 0.284 µM·h
AUC0-∞ ([1]; PTB in plasma after iv PTA 0.527 μmoles kg^-1, heifer no 4848, Experiment 1): 0.596 µM·h
AUC0-∞ ([1]; PTB in plasma after iv PTA 0.527 μmoles kg^-1, heifer no 4849, Experiment 1): 0.654 µM·h
Tmax ([1]; female, Jersey, cattle, plasma, 0.21 mg kg^-1 b.w., iv PTA, first sampling point, read-out: time of peak plasma concentration of the metabolite after administration of PTA (converted)): 10 min
ratio of AUC PTB to AUC PTA ([1]; heifer no 4848, Experiments 1 and 4): approx. 0.4
ratio of AUC PTB to AUC PTA ([1]; heifer no 4849, additional iv experiment with lower dose): 0.76
conjugation with glucuronic acid or sulphate in urine [2]: not conjugated with either glucuronic acid or sulphate
AUC0-∞ [3, 5]: 0.177 µM·h
MTT mean transit time [3, 5]: 3.82 h
AUC0-∞ [3, 6]: 0.367 µM·h
MTT mean transit time [3, 6]: 4.55 h
AUC0-∞ [3, 7]: 0.594 µM·h
MTT mean transit time [3, 7]: 2.89 h
AUC0-∞ [3, 8]: 0.657 µM·h
MTT mean transit time [3, 8]: 3.02 h
AUC0-∞ [3, 9]: 0.897 µM·h
MTT mean transit time [3, 9]: 3.29 h
AUC0-∞ [3, 10]: 0.428 µM·h
MTT mean transit time [3, 10]: 3.58 h
PTB in plasma and urine after oral administration ([3]; bracken extract or dried ferns): detected in both plasma and urine
Cmax [3, 11]: 28 nM
Tmax ([3]; bovine, 1.03 μmoles kg^-1, PTB in plasma, oral bracken extract, PTA dose 1.03 μmoles kg^-1, heifer no 4848, read-out: Tmax time at maximum concentration): 120 min
k el [3, 11]: 6.5e-05 s⁻¹
Cmax [3, 12]: 43 nM
Tmax ([3]; bovine, 1.03 μmoles kg^-1, PTB in plasma, oral bracken extract, PTA dose 1.03 μmoles kg^-1, heifer no 4849, read-out: Tmax time at maximum concentration): 30 min
k el [3, 12]: 2.78e-05 s⁻¹
Cmax [3, 13]: 182 nM
Tmax ([3]; bovine, 4.02 μmoles kg^-1, PTB in plasma, oral dried bracken, PTA dose 4.02 μmoles kg^-1, heifer no 4848, read-out: Tmax time at maximum concentration): 30 min
k el [3, 13]: 8.56e-05 s⁻¹
Cmax [3, 14]: 74 nM
Tmax ([3]; bovine, 4.02 μmoles kg^-1, PTB in plasma, oral dried bracken, PTA dose 4.02 μmoles kg^-1, heifer no 4849, read-out: Tmax time at maximum concentration): 120 min
k el [3, 14]: 7.78e-05 s⁻¹
Cmax [3, 15]: 160 nM
Tmax ([3]; bovine, 5.02 μmoles kg^-1, PTB in plasma, oral bracken extract, PTA dose 5.02 μmoles kg^-1, heifer no 4848, read-out: Tmax time at maximum concentration): 60 min
k el [3, 15]: 0.000106 s⁻¹
Cmax [3, 16]: 174 nM
Tmax ([3]; bovine, 5.02 μmoles kg^-1, PTB in plasma, oral bracken extract, PTA dose 5.02 μmoles kg^-1, heifer no 4849, read-out: Tmax time at maximum concentration): 45 min
k el [3, 16]: 8.06e-05 s⁻¹
Tmax ([3]; cattle, PTB, oral bracken extract and bracken fern, read-out: time to maximum concentration in plasma (Tmax)): ~60 min
AUC0-∞ ([4]; Day 1, average of four heifers): 0.774 µM·h
MTT ([4]; Day 1, average of four heifers): 3.8 h
AUC0-∞ [4, 17]: 0.386 µM·h
MTT [4, 17]: 2.3 h
AUC0-∞ [4, 18]: 1.248 µM·h
MTT [4, 18]: 4.4 h
AUC0-∞ [4, 19]: 0.873 µM·h
MTT [4, 19]: 4.6 h
AUC0-∞ [4, 20]: 0.591 µM·h
MTT [4, 20]: 3.9 h
AUC0-∞ ([4]; Day 7, average of four heifers): 0.849 µM·h
MTT ([4]; Day 7, average of four heifers): 3.4 h
AUC0-∞ [4, 21]: 0.606 µM·h
MTT [4, 21]: 3.2 h
AUC0-∞ [4, 22]: 1.264 µM·h
MTT [4, 22]: 3.6 h
AUC0-∞ [4, 23]: 0.968 µM·h
MTT [4, 23]: 3.9 h
AUC0-∞ [4, 24]: 0.558 µM·h
MTT [4, 24]: 3.0 h
transient peak of PTB in plasma as share of the PTA dose ([4]; after the morning dose): 10%
accumulation of PTB in the organism ([4]; mean AUC0-∞ Day 1 vs Day 7): not accumulated
